Structures can show the parent of a compound that is named as a salt. Where two headings read alike, the source gives them in different places.
What was measured:
ATXN2-luc [1] = test: NCATS qHTS (LOPAC pilot, primary and confirmation): ATXN2-luc in S2 cells, 1536-well, Steady-Glo; assay type: cell-based, human; conditions: for AC50 / Efficacy / Inf Activity / Log AC50 / Hill Coef / Zero Activity / Max Resp: LOPAC library screening optimization; for Curve Class: LOPAC library (1,280 compounds) screening optimization, signed sub-classes (-1.1, -2.2, -3 ...); for Efficacy / Inf Activity / Hill Coef / Zero Activity: curve-fit parameter; for Max Resp: response at highest tested concentration
Experimental: We next performed a pilot screen assay to optimize the 1536-well qHTS using S2 cells. […] Cytotoxicity was determined using a multiplexed viability assay (CellTiter-Fluor, a fluorescence-based viability assay using Gly-Phe-7-amino-4-trifluoromethylcoumarin substrate).
CellTiter-Fluor was used to determine compound effect on cell viability, and Steady-Glo was used to measure luciferase in a multiplexed assay.
The primary assay was conducted at the NCATS NIH Chemical Genomics Center laboratory. About 4 μl of S2 cell suspension in phenol red–free DMEM was dispensed into wells of 1536-well assay plates. […] Next, SteadyGlo luciferase substrate detection reagent (3 μl) was added to each well and incubated for an additional 5 min at room temperature. Luminescence was then measured on the ViewLux imager equipped with clear filters using a 2 s exposure. All screening operations were performed on a fully integrated robotic system (Kalypsys) containing one RX-130 and two RX-90 anthropomorphic robotic arms (Stäubli). Vehicle-only plates, with DMSO being pin-transferred to columns 5 to 48, were inserted uniformly at the beginning and the end of each library in order to monitor and record any shifts in assay performance.

ATXN2-luc [2] = test: MSSR pilot screen: ATXN2-luc luciferase assay (Bright-Glo) in H2 cells, single 10 μM dose; assay type: cell-based, human; conditions: H2 cells, single dose (title: 10 μM compound), overnight
[3] = Homo sapiens, logarithm of AC50 (negative values), read-out: Log AC50 (converted)
[4] = logarithm of AC50 (negative values)

SMILES | AC50 (ATXN2-luc [1]; [3]) [µM] | AC50 (ATXN2-luc [1]; Homo sapiens, read-out: AC50) [µM] | Curve Class (ATXN2-luc [1]) | Efficacy (ATXN2-luc [1]) | Inf Activity (ATXN2-luc [1]) | Log AC50 (ATXN2-luc [1]; [4]) | AC50 (ATXN2-luc [1]; read-out: AC50) [µM] | SD from mean (ATXN2-luc, Z-score) (ATXN2-luc [2]) [SD] | other results
CC1CNCCN1[S+](=O)([O-])c1cccc2cnccc12 (centres unmarked) | 22.4 | 22.4 | – | – | – | – | – | – | –
Br.COc1cc(CC(C)N)c(OC)cc1Br (centres unmarked) | 15.8 | 15.8 | -2.4 | -57.1187 | -63.2991 | – | – | – | –
COc1cc(C[C@@H](C)N)c(OC)cc1Br.Cl | 39.8 | 39.8 | – | -71.0454 | -73.0357 | – | – | – | –
COc1cc(C[C@H](C)N)c(OC)cc1Br.Cl | 28.2 | 28.2 | – | -52.627 | -55.207 | – | – | – | –
CC(C)NCC(O)COc1cccc2ccccc12 (racemic) [(±)-Propranolol hydrochloride] | 14.1 | 14.1 | -2.2 | – | – | -4.6 | 25.1 | – | –
Br.CC1C2Cc3ccc(O)cc3C1(C)CCN2CCc1ccccc1 (single isomer, unassigned; (+)) [(+)-Phenazocine hydrobromide] | 17.8 | 17.8 | – | -59.8542 | -62.9667 | – | – | – | –
Br.C[C@H]1C2Cc3ccc(O)cc3[C@]1(C)CCN2CCc1ccccc1 (single isomer, unassigned; (-)) [(-)-Phenazocine hydrobromide] | 35.5 | 35.5 | – | -71.0942 | -66.3244 | – | – | – | –
CC[C@H](O)C(C[C@H](C)N(C)C)(c1ccccc1)c1ccccc1.Cl [(+)-alpha-Methadol hydrochloride] | 35.5 | 35.5 | – | -65.8804 | -66.2609 | – | – | – | –
CC[C@@H](O)C(C[C@@H](C)N(C)C)(c1ccccc1)c1ccccc1.Cl [(-)-alpha-Methadol hydrochloride] | 31.6 | 31.6 | – | -53.231 | -52.9785 | – | – | – | –
CC(C)NC[C@H](O)COc1cccc2ccccc12 [(S)-Propranolol hydrochloride] | 17.8 | 17.8 | -2.2 | – | – | -4.5 | 31.6 | – | –
Nc1ncnc2c1c(I)cn2[C@@H]1C[C@H](N)[C@@H](O)[C@H]1O [A-134974 dihydrochloride hydrate] | 10 | 10 | -2.1 | – | – | -4.9 | 12.6 | – | –
Clc1ccc2c(c1)C(N1CCNCC1)=Nc1ccccc1O2 [Amoxapine] | 11.2 | 11.2 | -2.2 | -60.2873 | -56.594 | – | – | – | –
O=C(Cc1ccc(Cl)c(Cl)c1)N1CCCCC1CN1CCCC1 (centres unmarked) [BRL 52537 hydrochloride] | 35.5 | 35.5 | – | -82.8908 | -85.8462 | – | – | – | –
OC(CCN1CCCCC1)(c1ccccc1)C1CC2C=CC1C2 (centres unmarked) [Biperiden hydrochloride] | 17.8 | 17.8 | -2.2 | – | – | -4.6 | 25.1 | – | –
CCc1cccc(N(C)C(N)=Nc2cccc3ccccc23)c1 [CNS-1102] | 12.6 | 12.6 | -2.2 | – | – | -4.7 | 20 | – | –
CNCCCN1c2ccccc2CCc2ccccc21 [Desipramine hydrochloride] | 12.6 | 12.6 | -2.2 | – | – | -4.85 | 14.1 | – | –
CNCCC(Oc1ccc(C(F)(F)F)cc1)c1ccccc1 (centres unmarked) [Fluoxetine hydrochloride] | 12.6 | 12.6 | -2.1 | – | – | -4.85 | 14.1 | – | –

SMILES | AC50 (ATXN2-luc [1]; [3]) [µM] | AC50 (ATXN2-luc [1]; Homo sapiens, read-out: AC50) [µM] | Curve Class (ATXN2-luc [1]) | Efficacy (ATXN2-luc [1]) | Inf Activity (ATXN2-luc [1]) | Log AC50 (ATXN2-luc [1]; [4]) | AC50 (ATXN2-luc [1]; read-out: AC50) [µM] | SD from mean (ATXN2-luc, Z-score) (ATXN2-luc [2]) [SD] | other results
c1ccc(CN2CCC3(CCCc4ccccc43)CC2)cc1 [L-687,384 hydrochloride] | 14.1 | 14.1 | -2.2 | -56.3105 | -51.8105 | – | – | – | –
CC(=O)O[C@H]1C[C@H](O[C@H]2[C@@H](O)C[C@H](O[C@H]3[C@@H](O)C[C@H](OC4CC[C@@]5(C)C(CC[C@@H]6[C@@H]5CC[C@]5(C)[C@@H](C7=CC(=O)OC7)[C@@H](O)C[C@]65O)C4)O[C@@H]3C)O[C@@H]2C)O[C@H](C)[C@H]1O[C@@H]1O[C@H](CO)[C@@H](O)[C@H](O)[C@H]1O (some centres unmarked) [Lanatoside B] | 1.26 | 1.26 | – | -78.0523 | -90.3741 | – | – | – | –
CNCCC(Oc1ccc(C(F)(F)F)cc1)c1ccccc1.Cl (centres unmarked) [MLS001076338-01] | – | – | -3 | -91.3933 | -89.6057 | -4.6 | 25.1 | – | Hill Coef (ATXN2-luc [1]): 3.5722; Zero Activity (ATXN2-luc [1]): 1.7876; Max Resp (ATXN2-luc [1]): -84.8539
CNCC[C@H](Oc1ccc(C(F)(F)F)cc1)c1ccccc1.Cl [MLS002153300-01] | – | – | -2.2 | -72.8775 | -81.66 | -4.45 | 35.5 | – | Hill Coef (ATXN2-luc [1]): 2.1211; Zero Activity (ATXN2-luc [1]): -8.7824; Max Resp (ATXN2-luc [1]): -62.2424
Oc1ccc2c3c1O[C@H]1c4[nH]c5ccccc5c4C[C@@]4(O)[C@@H](C2)N(CC2CC2)CC[C@]314 [Naltrindole hydrochloride] | 14.1 | 14.1 | -2.2 | – | – | -4.75 | 17.8 | – | –
O=C1C=C2C(=CCOC2O)O1 (centres unmarked) [PATULIN] | – | – | – | – | – | – | – | -3.651 | –
COC(=O)[C@]1(C)CC[C@]2(C)CC[C@]3(C)C4=CC=C5C(=CC(=O)C(O)=C5C)[C@]4(C)CC[C@@]3(C)[C@@H]2C1 [PRISTIMERIN] | – | – | – | – | – | – | – | -3.883 | –
COc1ccc(C[C@H](N)C(=O)N[C@H]2[C@@H](O)[C@H](n3cnc4c(N(C)C)ncnc43)O[C@@H]2CO)cc1 [PUROMYCIN HYDROCHLORIDE] | – | – | – | – | – | – | – | -3.716 | –
COc1cc(/C=C/C(=O)N2CCC=CC2=O)cc(OC)c1OC [Piperlongumine] | – | – | – | – | – | – | – | -2.973 | –
CNCCCC1c2ccccc2C=Cc2ccccc21 [Protriptyline hydrochloride] | 31.6 | 31.6 | – | -59.559 | -66.4303 | – | – | – | –
COc1ccc(C[C@H](N)C(=O)N[C@H]2[C@@H](O)[C@H](n3cnc4c(N(C)C)ncnc43)O[C@@H]2CO)cc1 [Puromycin dihydrochloride] | – | – | – | – | – | – | – | -4.723 | –
CCN(CC)CCCC(C)Nc1c2ccc(Cl)cc2nc2ccc(OC)cc12 (centres unmarked) [Quinacrine dihydrochloride dihydrate] | – | – | – | – | – | – | – | -3.270 | –
CC[C@@]1(O)C[C@H](O)c2c(cc3c(c2O)C(=O)c2c(O)ccc(O)c2C3=O)[C@H]1C(=O)OC [RUTILANTINONE] | – | – | – | – | – | – | – | -2.722 | –
COc1cc([C@@H]2c3cc4c(cc3[C@@H](O[C@@H]3O[C@@H]5CO[C@@H](c6cccs6)O[C@H]5[C@H](O)[C@H]3O)[C@H]3COC(=O)[C@H]23)OCO4)cc(OC)c1O [TENIPOSIDE] | – | – | – | – | – | – | – | -2.832 | –
C[CH2][Hg][S]c1ccccc1C(=O)[O-].[Na+] [THIMEROSAL] | – | – | – | – | – | – | – | -5.645 | –
C[C@H]1CC[C@]2(NC1)O[C@H]1C[C@H]3[C@@H]4CC[C@H]5C[C@@H](O[C@@H]6O[C@H](CO)[C@H](O[C@@H]7O[C@H](CO)[C@@H](O)[C@H](O[C@@H]8OC[C@@H](O)[C@H](O)[C@H]8O)[C@H]7O[C@@H]7O[C@H](CO)[C@@H](O)[C@H](O)[C@H]7O)[C@H](O)[C@H]6O)CC[C@]5(C)[C@H]4CC[C@]3(C)[C@H]1[C@@H]2C [TOMATINE] | – | – | – | – | – | – | – | -4.999 | –
